Measurements reported in paper PMC8389807 (Journal of Medicinal Chemistry, 2021).
Where two headings read alike, the source gives them in different places.

Experiments:
[1] = tested on: BrCr Lab Strain of EV-A71; experiment: Antiviral activity against the BrCr lab strain of EV-A71 in RD cells (CPE reduction, MTS/PMS); format: cell-based; settings: Enterovirus A, EVA71, RD, read-out: EC50
[2] = tested on: coxsackievirus B3 Nancy strain; experiment: microbe, parasite or virus in culture; format: cell-based; settings: Enterovirus B, Vero A host cell
[3] = tested on: enterovirus D68 CU70 strain; experiment: microbe, parasite or virus in culture; format: cell-based; settings: Enterovirus D, HeLa Rh host cell
rhinovirus 2 = experiment: microbe, parasite or virus in culture; format: cell-based; settings: Enterovirus; rhinovirus 2, HeLa Rh host cell
rhinovirus 14 = experiment: microbe, parasite or virus in culture; format: cell-based; settings: Enterovirus; rhinovirus 14, HeLa Rh host cell
[4] = tested on: EV71 genogroup B2 strain 11316; experiment: microbe, parasite or virus in culture; format: cell-based; settings: Enterovirus A, genogroup B2, strain 11316, RD cells
[5] = tested on: EV71 genogroup B5 strain TW/70902/08; experiment: microbe, parasite or virus in culture; format: cell-based; settings: Enterovirus A, genogroup B5, strain TW/70902/08, RD cells
[6] = tested on: EV71 genogroup C2 strain H08300 461#812; experiment: microbe, parasite or virus in culture; format: cell-based; settings: Enterovirus A, genogroup C2, strain H08300 461#812, RD cells
[7] = tested on: EV71 genogroup C4 strain TW/1956/05; experiment: microbe, parasite or virus in culture; format: cell-based; settings: Enterovirus A, genogroup C4, strain TW/1956/05, RD cells
EV-A71 VP1 (S184T) = format: cell-based
EV-A71 VP1 (P246S) = format: cell-based
EV-A71 VP1 (S184T/P246S) = format: cell-based
HIV-1 (NL4.3) [8] = experiment: microbe, parasite or virus in culture; format: cell-based; settings: Human immunodeficiency virus 1, MT4; MT-4 cells; 50% reduction of virus-induced cytopathic effect
HIV-2 (ROD) = experiment: Anti-HIV-2 activity in MT-4 cells (CPE, MTS/PES); format: cell-based; settings: Human immunodeficiency virus 2, MT4, MT-4 cells; 50% reduction of virus-induced cytopathic effect; read-out: HIV-2 (ROD) EC50
[9] = target: T1, recombinant HIV-1 IIIB gp120 (Human immunodeficiency virus type 1 group M subtype B, UniProt P03375); experiment: biochemical; format: binding; settings: SPR, four replicates
T1 construct: purchased ImmunoDx, Woburn, Massachusetts; host or cells: Chinese hamster ovary cells

gp120-CD4 binding = target: T2, gp120-CD4 binding (Human immunodeficiency virus type 1 group M subtype B, UniProt P03375); experiment: biochemical
T2 construct: […]; purchased CD4: Life Technologies Europe, Merelbeke, Belgium; gp120: not restated here (ImmunoDx inferred)

HIV-1 (NL4.3) [10] = experiment: microbe, parasite or virus in culture; format: cell-based; settings: Human immunodeficiency virus 1; CXCR4-tropic strain, PBMC; read-out: HIV-1 (NL4.3) EC50
HIV-1 (Ba-L) = experiment: microbe, parasite or virus in culture; format: cell-based; settings: Human immunodeficiency virus 1, BAL; CCR5-tropic strain, PBMC; read-out: HIV-1 (Ba-L) EC50
[11] = target: gp120 binding of mAb 2G12 (Human immunodeficiency virus type 1, UniProt P03377); experiment: cell-based; format: cell-based; settings: HIV-1 NL4.3-infected MT-4 cells, flow cytometry
[12] = target: gp120 binding of mAb clone 447-52D (Human immunodeficiency virus type 1, UniProt P03377); experiment: Competition with anti-gp120 mAb 447-52D on HIV-1-infected MT-4 cells (flow cytometry); format: cell-based, HIV-1 NL4.3
Experimental: (§1) We then investigated the putative gp120 binding site for this class of compounds using competition-binding experiments with mAbs directed to different protein regions: (i) human mAb clone 2G12, whose epitope, composed entirely of N-linked glycans, is centered at position N332;[56]
(§2) These tests were carried out in cell culture using CD4^+ MT-4 T cells that express high levels of gp120 on their membrane when they become infected.
anti-mouse mAb). This is background staining or called negative control (NC).
bPositive control. HIV-1 infected cells stained with the first (anti-HIV-1 envelope antibody) and then the
This is the positive control (PC).
Finally, the mannose-specific lectin Hippeastrum hybrid agglutinin

[13] = target: gp120 binding of mAb clone 9284 (Human immunodeficiency virus type 1, UniProt P03377); experiment: Competition with anti-gp120 mAb 9284 on HIV-1-infected MT-4 cells (flow cytometry); format: cell-based, HIV-1 NL4.3
Experimental: as §1, §2

[14] = target: gp120 binding of mAb 9305 (Human immunodeficiency virus type 1, UniProt P03377); experiment: cell-based; settings: HIV-1 NL4.3-infected MT-4 cells, flow cytometry
in vitro [15] = settings: human
in vitro [16] = settings: human; remark: listed apart in the source

Q: With `O=C(CCOCC(COCCC(=O)NC(Cc1c(-c2cc(C(=O)O)cc(C(=O)O)c2)[nH]c2c(-c3cc(C(=O)O)cc(C(=O)O)c3)cccc12)C(=O)O)(COCCC(=O)NC(Cc1c(-c2cc(C(=O)O)cc(C(=O)O)c2)[nH]c2c(-c3cc(C(=O)O)cc(C(=O)O)c3)cccc12)C(=O)O)COCCC(=O)NC(Cc1c(-c2cc(C(=O)O)cc(C(=O)O)c2)[nH]c2c(-c3cc(C(=O)O)cc(C(=O)O)c3)cccc12)C(=O)O)NC(Cc1c(-c2cc(C(=O)O)cc(C(=O)O)c2)[nH]c2c(-c3cc(C(=O)O)cc(C(=O)O)c3)cccc12)C(=O)O` (stereo not drawn) [Compound 33] as the molecule, how does the EC50 ([1]; BrCr lab strain, RD cells, 50% reduction of virus-induced CPE) read?
A: 40 ± 10 nM

Q: And the EC50 ([1]; BrCr wild type (cross-resistance study))?
A: 30 ± 10 nM

Q: What about the EC50 ([1]; enterovirus panel, enterovirus A71 BrCr strain, RD host cell) of the same molecule?
A: 40 ± 7 nM

Q: What about the EC50 ([1]; genogroup A, BrCr, RD cells (clinical isolate panel)) of the same molecule?
A: 43 ± 6 nM

Q: And the EC50 [2]?
A: > 50000 nM

Q: What about the EC50 [3] of the same molecule?
A: > 50000 nM

Q: And the EC50 (rhinovirus 2)?
A: > 50000 nM

Q: What about the EC50 (rhinovirus 14) of the same molecule?
A: > 50000 nM

Q: And the EC50 [4]?
A: 101 ± 11 nM

Q: And the EC50 [5]?
A: 10 ± 1.5 nM

Q: And the EC50 [6]?
A: 120 ± 6 nM

Q: What about the EC50 [7] of the same molecule?
A: 11 ± 0.2 nM

Q: And the EC50 (EV-A71 VP1 (S184T))?
A: 100 ± 10 nM

Q: What about the EC50 (EV-A71 VP1 (P246S)) of the same molecule?
A: 30 ± 10 nM

Q: And the EC50 (EV-A71 VP1 (S184T/P246S))?
A: 60 ± 40 nM

Q: And the EC50 (HIV-1 (NL4.3) [8])?
A: 6 ± 5 nM

Q: What about the EC50 (HIV-2 (ROD)) of the same molecule?
A: ~60 nM

Q: And the kd ([9]; 1:1 Langmuir model)?
A: 2.45 ± 0.34 ×10^–3 s^–1

Q: What about the kon ([9]; 1:1 Langmuir model, read-out: ka) of the same molecule?
A: 3340 ± 1020 M⁻¹ s⁻¹

Q: What about the Kd ([9]; apparent KD) of the same molecule?
A: 840 ± 340 nM

Q: What about the IC50 (gp120-CD4 binding; SPR, 25 nM gp120, immobilized CD4, read-out: concentration inhibiting 50% of gp120-CD4 binding) of the same molecule?
A: 10 to 40 nM

Q: What about the “times more potent than AL-471” value (gp120-CD4 binding; inhibition of gp120-CD4 binding) of the same molecule?
A: at least 16

Q: And the EC50 (HIV-1 (NL4.3) [10])?
A: 33 nM

Q: What about the EC50 (HIV-1 (Ba-L)) of the same molecule?
A: 36 nM

Q: What about the “2G12 IC50” value [11] of the same molecule?
A: did not prevent the binding

Q: What about the IC50 [11] of the same molecule?
A: > 100000 nM

Q: And the IC50 ([12]; HIV-1 NL4.3-infected MT-4 cells, flow cytometry, average, read-out: 447-52D IC50)?
A: 6800 nM

Q: What about the inhibition at 0.16 µM ([12]; MT4, mAb 447-52D, 0.16 µM, Table S1, read-out: % inhibition of antibody binding) of the same molecule?
A: 16.9%

Q: What about the inhibition at 0.8 µM ([12]; MT4, mAb 447-52D, 0.8 µM, Table S1, read-out: % inhibition of antibody binding) of the same molecule?
A: 23.9%

Q: What about the inhibition at 4 µM ([12]; MT4, mAb 447-52D, 4 µM, Table S1, read-out: % inhibition of antibody binding) of the same molecule?
A: 36.5%

Q: And the inhibition at 20 µM ([12]; MT4, mAb 447-52D, 20 µM, Table S1, read-out: % inhibition of antibody binding)?
A: 76.9%

Q: What about the “% inhibition of antibody binding” value ([12]; mAb 447-52D, 0.16 µM, Table S1, listed as AL-518, 0.16 µM) of the same molecule?
A: 17%

Q: What about the “% inhibition of antibody binding” value ([12]; mAb 447-52D, 20 µM, Table S1, listed as AL-518, 20 µM) of the same molecule?
A: 77%

Q: And the IC50 ([12]; mAb 447-52D, Table S1, read-out: IC50)?
A: 6850 nM

Q: And the IC50 ([13]; HIV-1 NL4.3-infected MT-4 cells, flow cytometry, average, read-out: 9284 IC50)?
A: 3800 nM

Q: What about the inhibition at 0.16 µM ([13]; MT4, mAb 9284, 0.16 µM, Table S2, read-out: % inhibition of antibody binding) of the same molecule?
A: 25.1%

Q: What about the inhibition at 0.8 µM ([13]; MT4, mAb 9284, 0.8 µM, Table S2, read-out: % inhibition of antibody binding) of the same molecule?
A: 37.9%

Q: And the inhibition at 4 µM ([13]; MT4, mAb 9284, 4 µM, Table S2, read-out: % inhibition of antibody binding)?
A: 51.4%

Q: What about the inhibition at 20 µM ([13]; MT4, mAb 9284, 20 µM, Table S2, read-out: % inhibition of antibody binding) of the same molecule?
A: 61.1%

Q: And the “% inhibition of antibody binding” value ([13]; mAb 9284, 0.16 µM, Table S2, listed as AL-518, 0.16 µM)?
A: 25%

Q: What about the “% inhibition of antibody binding” value ([13]; mAb 9284, 20 µM, Table S2, listed as AL-518, 20 µM) of the same molecule?
A: 61%

Q: And the IC50 ([13]; mAb 9284, Table S2, read-out: IC50)?
A: 3370 nM

Q: And the IC50 [14]?
A: > 100000 nM

Q: What about the CC50 (in vitro [15]) of the same molecule?
A: > 100000 nM

Q: And the CC50 (in vitro [16])?
A: > 100000 nM
